Experimental data as given in patent publication US10716805B2, “Formulation for release of nitric oxide” (Glanotech Limited, priority 2018, dated 2020).
Entries after “also recorded” stand apart in the source; their conditions may differ.

How the values were obtained:
corpus cavernosum tissue = test: In-vitro relaxation/contraction of rat corpus cavernosum tissue (force displacement transducer); type: cell-based; conditions: for relaxation of the tissue of the corpora cavernosa pre-constricted with norepinephrine (vasodilatory effect): scalar solutions 10^−s M to 10^−3 M after norepinephrine constriction of about 1.5 mN
Text: In particular, this model is used for planning experiments aimed at checking the vasodilatory action of NO on vascular smooth muscle cells, since the methodology presented by the authors allows samples of corpus cavernosum tissue to be obtained from rats, on which studies of response to various exogenous molecules can be conducted, to detect their relaxation/contraction effects on smooth muscle cells.
We used 20 adult Wistar-type rats weighing between 175 and 200 g; after having sacrificed the rats we obtained corpus cavernosum tissues as described by the methods and placed these in a Krebs solution (in mM: 118 NaCl, 4.7 KCl, 1.2 KH2PO4, 1.2 MgSO4, 1.5 CaCl2, 25 NaHCO3, 11 glucose).
A single sample was taken from each rat.
The excised tissues were then put in 10 mL Krebs solution and held in place by two metal arms to allow assessment of any changes in the forces observed and assessed by the Grass FT03 model (using a force displacement transducer apparatus to assess the muscle tension of tissues, calibrated in mN). The saline solution containing the tissues (Krebs solution) was kept at pH 7.4±0.1 and at 37° C., with oxygenation using a mixture of 95% oxygen and 5% carbon dioxide.

[1] = system: rat model with type 1 diabetes induced by streptozotocin; test: In-vivo test of sexual function in diabetic rat models; conditions: for EL (Ejaculation latency) / IF (Introduction frequency) / IL (Introduction latency) / MF (Mating frequency) / ML (Mating latency) / PEI (Post-ejaculatory interval): diabetic rat
Protocol: Next we tested the possible beneficial effects of SNO-pantetheine on sexual function in a rat model with type 1 diabetes induced by streptozotocin, which is typically accompanied by deficit of sexual activity.
In short, male Wistar rats were assigned to a cage (45×50×35 cm) covered in glass and lit with red light. Training took place every day after 5 pm for about 30 min, and after 10 minutes of acclimatization a female rat in an oestrogenic phase was introduced into the cage. We then observed the sexual behaviour of diabetic rats vs. the relevant controls by measuring standard parameters (Burnett et al., 1995).

[2] = Formation and stability of nitrosothiol after mixing of phases A and B (visible UV absorption spectrum); type: physicochemical; conditions: at room temperature
Protocol: The reaction mixture is prepared by dissolving the following amounts of reagents in 5 mL propylene glycol: fumaric acid 10 mM; ascorbic acid between 30 and 50 mM (PHASE A).
A solid phase, consisting of a mixture of pantetheine, sodium nitrite and powdered copper sulfate, is added rapidly to the solution obtained, in a quantity such that their concentration in the final reaction volume amounts to: pantetheine 10 mM, sodium nitrite 15 mM; copper sulfate 1 mM (PHASE B). Mixing is done at room temperature (25° C.) (Fukuto et al., 2013).
The S-nitroso compound observed, which was absent […] the phases were mixed, is attributable to the S-nitroso pantetheine derivative.
At the same time, owing to the catalytic action of the traces of copper present, the corresponding nitrosothiol is also formed, and remains sufficiently stable for more than 1 hour at room temperature. Therefore, this formulation allows the rapid formation of nitrogen monoxide in a rapidly diffusible form and, at the same time, the formation of nitrosothiol that is sufficiently stable for the sustained release of nitrogen monoxide over time.

[3] = SNO-pantetheine group, Day 0 (baseline)
[4] = topical SNO-pantetheine, Day 30

time nitrosothiol remains sufficiently stable [2]	Compound	constriction of corpus cavernosum tissue (corpus cavernosum tissue; scalar solutions 10^−8 M to 10^−3 M, Krebs solution pH 7.4, 37° C.)	relaxation of the tissue of the corpora cavernosa pre-constricted with norepinephrine (vasodilatory effect) (corpus cavernosum tissue)	EL (Ejaculation latency) [1, 3]	IF (Introduction frequency) [1, 3]	IL (Introduction latency) [1, 3]	MF (Mating frequency) [1, 3]	ML (Mating latency) [1, 3]	PEI (Post-ejaculatory interval) [1, 3]	EL (Ejaculation latency) [1, 4]	IF (Introduction frequency) [1, 4]	IL (Introduction latency) [1, 4]	MF (Mating frequency) [1, 4]	ML (Mating latency) [1, 4]	PEI (Post-ejaculatory interval) [1, 4]	effect on sexual behaviour in the diabetic rat model ([1]; topical application, vs. all the parameters assessed)
–	NC[C@H](O)c1ccc(O)c(O)c1 [norepinephrine, reference compound]	about 1.5 mN	–	–	–	–	–	–	–	–	–	–	–	–	–	–
–	S-nitrosothiol of alpha lipoic acid	–	behaviour that is very similar to that of the S-nitrosothiol of pantetheine; also recorded: exhibit the desired vasodilatory effect	–	–	–	–	–	–	–	–	–	–	–	–	–
more than 1 hour	S-nitrosothiol of pantetheine [SNO-pantetheine]	–	effect of the norepinephrine was cancelled out; also recorded: exhibit the desired vasodilatory effect	423.2 ± 12.5 s	11.2 ± 0.9 number	52.3 ± 3.9 s	12.0 ± 1.7 number	42.5 ± 2.9 s	343.3 ± 10.9 s	375.8 ± 10.8 s	14.5 ± 0.8 number	44.7 ± 4.2 s	11.2 ± 0.3 number	34.3 ± 2.5 s	386.2 ± 14.3 s	able to induce an increase in sexual behaviour
